Tests used:
[1] = molecular target: T1, Integrin alpha-IIb/beta-3 (Homo sapiens, UniProt P05106+P08514); experiment: Binding affinity against alpha IIb beta-3 integrin in the presence of L-736622.; assay type: protein-complex assay
Target sequence in this assay (P05106 27-788 limits assumed): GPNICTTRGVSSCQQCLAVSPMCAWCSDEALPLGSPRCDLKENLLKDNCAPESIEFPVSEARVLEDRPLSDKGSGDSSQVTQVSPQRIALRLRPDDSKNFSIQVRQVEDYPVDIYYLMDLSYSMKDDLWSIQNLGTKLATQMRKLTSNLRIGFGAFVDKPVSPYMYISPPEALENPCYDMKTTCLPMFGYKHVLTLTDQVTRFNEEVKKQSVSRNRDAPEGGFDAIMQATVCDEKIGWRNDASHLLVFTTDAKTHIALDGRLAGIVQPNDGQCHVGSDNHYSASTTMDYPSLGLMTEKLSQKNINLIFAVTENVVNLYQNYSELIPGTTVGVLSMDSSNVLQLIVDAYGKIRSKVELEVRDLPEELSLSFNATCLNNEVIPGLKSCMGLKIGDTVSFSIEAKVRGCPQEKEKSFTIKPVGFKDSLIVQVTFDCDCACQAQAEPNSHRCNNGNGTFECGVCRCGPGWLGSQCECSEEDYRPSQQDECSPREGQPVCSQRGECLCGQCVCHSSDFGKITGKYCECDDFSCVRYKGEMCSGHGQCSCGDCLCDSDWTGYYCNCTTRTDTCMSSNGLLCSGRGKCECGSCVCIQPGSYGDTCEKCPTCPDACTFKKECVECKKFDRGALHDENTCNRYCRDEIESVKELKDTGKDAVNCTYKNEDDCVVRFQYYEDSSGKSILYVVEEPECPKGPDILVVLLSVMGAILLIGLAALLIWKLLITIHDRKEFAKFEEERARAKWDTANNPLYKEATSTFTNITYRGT
Target sequence in this assay (P08514 32-887 limits assumed): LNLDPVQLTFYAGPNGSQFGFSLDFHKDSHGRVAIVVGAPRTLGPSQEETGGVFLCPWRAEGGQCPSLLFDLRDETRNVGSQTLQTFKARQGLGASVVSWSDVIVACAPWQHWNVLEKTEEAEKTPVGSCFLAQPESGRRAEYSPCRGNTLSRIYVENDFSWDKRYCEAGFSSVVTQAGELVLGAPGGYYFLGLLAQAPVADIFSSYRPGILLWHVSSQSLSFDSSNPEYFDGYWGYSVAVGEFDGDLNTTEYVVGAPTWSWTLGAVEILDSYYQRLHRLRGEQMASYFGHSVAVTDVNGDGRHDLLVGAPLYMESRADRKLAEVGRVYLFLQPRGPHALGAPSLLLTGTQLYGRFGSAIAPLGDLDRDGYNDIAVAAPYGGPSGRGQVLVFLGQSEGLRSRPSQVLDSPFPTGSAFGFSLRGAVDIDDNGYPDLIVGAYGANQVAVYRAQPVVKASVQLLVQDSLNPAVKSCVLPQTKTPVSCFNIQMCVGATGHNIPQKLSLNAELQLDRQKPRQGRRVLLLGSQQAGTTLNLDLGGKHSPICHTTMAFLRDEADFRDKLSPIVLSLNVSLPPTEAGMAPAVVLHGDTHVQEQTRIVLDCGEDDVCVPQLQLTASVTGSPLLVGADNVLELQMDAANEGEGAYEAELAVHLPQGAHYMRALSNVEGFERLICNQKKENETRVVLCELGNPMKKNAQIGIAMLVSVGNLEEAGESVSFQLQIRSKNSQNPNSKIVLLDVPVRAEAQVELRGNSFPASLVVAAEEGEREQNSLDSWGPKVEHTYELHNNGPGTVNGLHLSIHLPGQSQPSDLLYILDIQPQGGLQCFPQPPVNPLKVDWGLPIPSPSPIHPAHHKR
Target sequence in this assay (P08514 891-1039 limits assumed): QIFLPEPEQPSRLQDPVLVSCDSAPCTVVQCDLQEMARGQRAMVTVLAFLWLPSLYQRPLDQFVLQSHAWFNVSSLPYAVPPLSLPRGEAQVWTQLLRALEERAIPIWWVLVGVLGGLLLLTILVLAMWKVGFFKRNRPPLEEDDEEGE

[2] = species on record: Homo sapiens; experiment: In vitro inhibition of ADP-induced human platelet aggregation.; assay type: functional
[3] = molecular target: T1, Integrin alpha-IIb/beta-3; experiment: Binding affinity against alpha IIb beta-3 integrin by [125I]-L-692,884 displacement.; assay type: protein-complex assay

Kd [1] | IC50 [2] | ED50 [3] | Compound
7.7 nM | 7 nM | 0.53 nM | O=C(NC[C@H](NS(=O)(=O)c1cccs1)C(=O)O)c1ccc2c(c1)C(=O)N(CCC1CCNCC1)C2
 |  | 1.3 nM | CCCCS(=O)(=O)N[C@@H](CNC(=O)c1ccc2c(c1)C(=O)N(CCC1CCNCC1)C2)C(=O)O (stereo in doubt; 13) [listing 1 of 2 here]
7.6 nM | 9 nM | 0.88 nM | CCCCCS(=O)(=O)N[C@@H](CNC(=O)c1ccc2c(c1)C(=O)N(CCC1CCNCC1)C2)C(=O)O
100 nM |  |  | O=C(O)CCNC(=O)c1ccc2c(c1)C(=O)N(CCC1CCNCC1)C2
12 nM | 4 nM | 1.6 nM | O=C(NC[C@H](NS(=O)(=O)Cc1ccccc1)C(=O)O)c1ccc2c(c1)C(=O)N(CCC1CCNCC1)C2
6.4 nM | 15 nM | 0.83 nM | O=C(NC[C@H](NS(=O)(=O)c1ccccc1C(=O)O)C(=O)O)c1ccc2c(c1)C(=O)N(CCC1CCNCC1)C2
3.6 nM | 15 nM | 0.38 nM | O=C(NC[C@H](NS(=O)(=O)c1cccnc1)C(=O)O)c1ccc2c(c1)C(=O)N(CCC1CCNCC1)C2
5.1 nM | 8 nM | 1.1 nM | CCOCCS(=O)(=O)N[C@@H](CNC(=O)c1ccc2c(c1)C(=O)N(CCC1CCNCC1)C2)C(=O)O
4.4 nM |  |  | CCCCS(=O)(=O)N[C@@H](CNC(=O)c1ccc2c(c1)C(=O)N(CCC1CCNCC1)C2)C(=O)O (stereo in doubt; 13) [listing 2 of 2 here]
6 nM | 10 nM | 1.2 nM | O=C(NCc1ccccc1)N[C@@H](CNC(=O)c1ccc2c(c1)C(=O)N(CCC1CCNCC1)C2)C(=O)O
21 nM | 19 nM | 2.8 nM | CCCCNS(=O)(=O)N[C@@H](CNC(=O)c1ccc2c(c1)C(=O)N(CCC1CCNCC1)C2)C(=O)O

More lines, now with the values behind:

Compound | Kd [1] | IC50 [2] | ED50 [3]
CC(C)CS(=O)(=O)N[C@@H](CNC(=O)c1ccc2c(c1)C(=O)N(CCC1CCNCC1)C2)C(=O)O | 7.5 nM | 9 nM | 1.2 nM
CCCCCC(=O)N[C@@H](CNC(=O)c1ccc2c(c1)C(=O)N(CCC1CCNCC1)C2)C(=O)O | 6.4 nM | 13 nM | 4.2 nM
CS(=O)(=O)N[C@@H](CNC(=O)c1ccc2c(c1)C(=O)N(CCC1CCNCC1)C2)C(=O)O | 7.4 nM | 14 nM | 3.4 nM
CCCCS(=O)(=O)N[C@@H](CNC(=O)c1ccc2c(c1)C(=O)N(CCC1CCNCC1)C2)C(=O)O (stereo in doubt) [listing 1 of 2 here] | 8.8 nM | 14 nM | 
CCCCS(=O)(=O)N[C@@H](Cc1ccc(OCCCCC2CCNCC2)cc1)C(=O)O [TIROFIBAN] |  | 11 nM | 0.97 nM
O=C(O)c1ccc(S(=O)(=O)N[C@@H](CNC(=O)c2ccc3c(c2)C(=O)N(CCC2CCNCC2)C3)C(=O)O)cc1 | 15 nM | 7 nM | 2 nM
CCCCS(=O)(=O)N[C@@H](CNC(=O)c1ccc2c(c1)C(=O)N(CCC1CCNCC1)C2)C(=O)O (stereo in doubt) [listing 2 of 2 here] |  |  | 5.5 nM
O=C(NC[C@H](NS(=O)(=O)c1ccccc1)C(=O)O)c1ccc2c(c1)C(=O)N(CCC1CCNCC1)C2 | 3.7 nM | 8 nM | 0.33 nM
CCCCNC(=O)N[C@@H](CNC(=O)c1ccc2c(c1)C(=O)N(CCC1CCNCC1)C2)C(=O)O | 6.9 nM | 16 nM | 1.4 nM
